From publication PMC9572521, “Synthesis, Docking Studies and Pharmacological Evaluation of Serotoninergic Ligands Containing a 5-Norbornene-2-Carboxamide Nucleus” (Molecules, 2022) come the findings set out here.

As usually defined, the Emax is the greatest response seen or fitted, relative to the assay's reference.

Structures are written as SMILES. Like-named read-outs stand apart in the source and are kept apart here.

One assay has as its target 5-HT2A receptor (Rattus norvegicus, UniProt P14842). As to the kind of experiment: 5-HT2A competition binding assay ([3H]ketanserin, frontal cortex homogenates).
The target of another assay is T1, human 5-HT2C receptor (Homo sapiens, UniProt P28335).
T1 sequence (P28335 33-458): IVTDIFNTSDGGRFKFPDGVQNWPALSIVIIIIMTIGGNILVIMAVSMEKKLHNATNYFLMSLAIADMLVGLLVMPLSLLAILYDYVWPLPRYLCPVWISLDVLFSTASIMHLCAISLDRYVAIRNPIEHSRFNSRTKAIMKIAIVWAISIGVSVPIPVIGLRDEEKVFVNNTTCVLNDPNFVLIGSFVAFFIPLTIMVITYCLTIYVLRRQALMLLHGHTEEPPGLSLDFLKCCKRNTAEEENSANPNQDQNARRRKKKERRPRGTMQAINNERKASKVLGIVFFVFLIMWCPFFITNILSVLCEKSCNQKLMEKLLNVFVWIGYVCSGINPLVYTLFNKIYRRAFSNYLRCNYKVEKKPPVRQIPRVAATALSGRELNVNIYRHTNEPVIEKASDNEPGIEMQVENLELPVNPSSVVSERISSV
As to the kind of experiment: 5-HT2C competition binding assay ([3H]mesulergine, transfected cell membranes). Particulars: [3H]mesulergine, human 5-HT2C membranes.

The test system of assay [1] is 5-HT2A receptors (5-HT-induced contractions in the rat ileum). The assay can be described thus: 5-HT-evoked contractions of isolated rat ileum. The settings on record: for Emax, maximal inhibitory effect on 5-HT-induced contractions in the rat ileum: 5-HT 10^−5 M, compounds 10^−8–10^−5 M.
The next assay concerns the target T2, D2 receptor (Rattus norvegicus, UniProt P61169).
T2 construct: 15μg/mL of striatal homogenate was incubated in triplicate; from tissue; host or cells: rat striatum homogenate
As to the kind of experiment: Functional D2 receptor [35S]GTPγS assay (antagonist mode vs dopamine; basal for agonism).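 Note: [35S]GTPγS binding counted by scintillation after 60 min at 30 °C, nonspecific binding defined with 100 µM unlabeled GTPγS, inhibition curves fitted by one-site nonlinear regression.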 Particulars: against 40 µM dopamine, rat striatal homogenate. Type of assay: biochemical.

In the next assay the target is T3, 5-HT1A receptor (Rattus norvegicus, UniProt P19327).
T3 construct: 15 μg/mL of hippocampus homogenate was incubated in triplicate with 0.8 nM; from tissue; host or cells: rat hippocampus homogenate
T3 sequence (P19327 1-422): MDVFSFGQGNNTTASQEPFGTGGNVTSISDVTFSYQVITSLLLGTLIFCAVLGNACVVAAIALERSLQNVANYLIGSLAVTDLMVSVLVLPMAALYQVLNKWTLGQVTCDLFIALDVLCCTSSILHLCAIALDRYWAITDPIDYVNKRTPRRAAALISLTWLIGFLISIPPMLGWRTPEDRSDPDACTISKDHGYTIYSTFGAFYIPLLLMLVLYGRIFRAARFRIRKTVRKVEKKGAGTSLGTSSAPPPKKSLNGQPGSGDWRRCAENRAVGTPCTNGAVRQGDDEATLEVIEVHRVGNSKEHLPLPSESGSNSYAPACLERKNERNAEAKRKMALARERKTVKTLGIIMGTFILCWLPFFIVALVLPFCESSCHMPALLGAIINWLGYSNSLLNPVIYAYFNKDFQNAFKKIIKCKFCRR
The assay can be described thus: Functional 5-HT1A receptor [35S]GTPγS assay (agonist mode).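 For all read-outs here: male Sprague-Dawley rat hippocampal membranes incubated 90 min at 37 °C, bound label counted by scintillation after filtration, non-specific binding defined with 100 µM unlabeled GTPγS, one-site curve fit.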 The settings on record: [35S]GTPγS; for agonist activity at the 5-HT1A receptor: result in words. Format: biochemical.

The mark [2] stands for this setting: read-out: D2 receptor antagonistic activity IC50 (95% CI).
Where [3] appears, read: rat hippocampus homogenate, read-out: 5-HT1A Receptor G-Protein Stimulation EC50 (95% CI).
Setting [4] is: rat hippocampus homogenate, ± SEM.

Sequence of 5-HT2A receptor (P14842 whole entry): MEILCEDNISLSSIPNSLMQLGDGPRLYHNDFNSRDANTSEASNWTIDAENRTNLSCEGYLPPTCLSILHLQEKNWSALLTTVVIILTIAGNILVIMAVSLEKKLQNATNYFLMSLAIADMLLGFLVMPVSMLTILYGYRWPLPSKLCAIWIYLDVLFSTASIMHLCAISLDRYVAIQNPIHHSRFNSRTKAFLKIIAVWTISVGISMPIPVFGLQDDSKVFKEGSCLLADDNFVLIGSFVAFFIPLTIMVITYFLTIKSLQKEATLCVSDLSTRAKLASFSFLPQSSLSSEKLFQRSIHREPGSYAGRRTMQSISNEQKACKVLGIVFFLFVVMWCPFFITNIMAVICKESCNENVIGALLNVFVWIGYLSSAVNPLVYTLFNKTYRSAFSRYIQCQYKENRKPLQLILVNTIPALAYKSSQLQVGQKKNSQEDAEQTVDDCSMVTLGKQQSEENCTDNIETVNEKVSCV
T2 sequence (P61169 whole entry): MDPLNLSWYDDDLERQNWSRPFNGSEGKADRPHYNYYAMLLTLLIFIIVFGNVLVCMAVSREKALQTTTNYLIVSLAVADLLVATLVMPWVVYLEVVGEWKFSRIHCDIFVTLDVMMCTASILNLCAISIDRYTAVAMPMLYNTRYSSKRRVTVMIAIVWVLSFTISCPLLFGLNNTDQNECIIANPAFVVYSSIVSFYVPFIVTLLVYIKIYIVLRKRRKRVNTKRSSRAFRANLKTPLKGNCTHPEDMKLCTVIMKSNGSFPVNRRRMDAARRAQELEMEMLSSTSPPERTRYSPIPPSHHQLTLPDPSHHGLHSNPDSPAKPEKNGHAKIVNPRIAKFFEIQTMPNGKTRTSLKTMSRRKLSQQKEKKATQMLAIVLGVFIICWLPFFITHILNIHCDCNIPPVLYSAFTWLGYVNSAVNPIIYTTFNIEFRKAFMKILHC

In the case of `COc1ccccc1N1CCN(CCCNC(=O)C2CC3C=CC2C3)CC1` (single isomer, unassigned) [Norbo-5, Exo-N-(3-(4-(2-methoxyphenyl)piperazin-1-yl)propyl)bicyclo[2.2.1]hept-5-ene-2-carboxamide], the results for the Ki on 5-HT2A receptor (read-out: 5-HT2A Ki (95% CI)) and at human 5-HT2C receptor (read-out: 5-HT2C Ki (95% CI)) were 0.0457 µM and 1.82 µM, respectively. In addition, the “Emax, maximal inhibitory effect on 5-HT-induced contractions in the rat ileum” value in assay [1] is recorded as 15.42%. The IC50 is 33.4 µM at D2 receptor (setting [2]) and 33.9 µM on D2 receptor (read-out: D2 receptor antagonistic activity pIC50 (M ± SEM) (converted)). The “5-HT1A Receptor G-Protein Stimulation Emax (%) ± SEM” value on 5-HT1A receptor (rat hippocampus homogenate) is 140 ± 25.2 ^&& %. For the same compound, at 5-HT1A receptor (rat hippocampus homogenate, ± SEM, read-out: 5-HT1A Receptor G-Protein Stimulation pEC50 (converted)), the EC50 was 10 µM.

As for `O=C(c1ccc(F)cc1)C1CCN(CCn2c(=O)[nH]c3ccccc3c2=O)CC1` [Ketanserin, reference compound], the “effect on contractions induced by 5-HT” value in assay [1] (preliminary experiments, 0.1 µM) is reported as “depressed the contractions induced by 5-HT”.

With `O=C(NCCCN1CCN(c2ccccc2F)CC1)C1CC2C=CC1C2` (stereo not drawn) [Norbo-16, endo.-N-(3-(4-(2-fluorophenyl)piperazin-1-yl)propyl)bicyclo[2.2.1]hept-5-ene-2-carboxamide], the Ki on 5-HT2A receptor (read-out: 5-HT2A Ki (95% CI)) was found to be 0.0733 µM; at human 5-HT2C receptor (read-out: 5-HT2C Ki (95% CI)) it was 1.54 µM. In addition, the “Emax, maximal inhibitory effect on 5-HT-induced contractions in the rat ileum” value in assay [1] was 23.47%. Also, the IC50 on D2 receptor (setting [2]) was 41.5 µM. The “5-HT1A Receptor G-Protein Stimulation Emax (%) ± SEM” value on 5-HT1A receptor (rat hippocampus homogenate) is 182 ± 5.5 **^,# %. Further, the EC50 on 5-HT1A receptor (setting [3]) is 0.939 µM.

In the case of `O=C(NCCCN1CCN(Cc2ccc3c(c2)OCO3)CC1)C1CC2C=CC1C2` (stereo not drawn) [Norbo-25, Exo-N-(3-(4-(benzo[d][1,3]dioxol-5-ylmethyl)piperazin-1-yl)propyl)bicyclo[2.2.1]hept-5-ene-2-carboxamide], the Ki is 0.372 µM on 5-HT2A receptor (± SEM, read-out: 5-HT2A pKi (converted)) and 1.05 µM at human 5-HT2C receptor (read-out: 5-HT2C Ki (95% CI)). The “D2 receptor antagonistic activity IC50 (95% CI, µM)” value on D2 receptor is “no activity”. The “D2 receptor antagonistic activity pIC50 (M ± SEM)” value on D2 receptor was “no activity”. Further, the EC50 at 5-HT1A receptor (setting [3]) is 1.91 µM. On 5-HT1A receptor (rat hippocampus homogenate, read-out: 5-HT1A Receptor G-Protein Stimulation Emax (%) ± SEM), the Emax was determined as 184 ± 6.4%.

Consider `O=C(NCCCN1CCN(Cc2ccc3c(c2)OCO3)CC1)C1CC2C=CC1C2` (stereo not drawn) [Norbo-26, endo-N-(3-(4-(benzo[d][1,3]dioxol-5-ylmethyl)piperazin-1-yl)propyl)bicyclo[2.2.1]hept-5-ene-2-carboxamide], for which the Ki at 5-HT2A receptor (read-out: 5-HT2A Ki (95% CI)) is 0.584 µM. Also, the Ki on human 5-HT2C receptor (± SEM, read-out: 5-HT2C pKi (converted)) is 2.29 µM. For the same compound, on D2 receptor, the “D2 receptor antagonistic activity IC50 (95% CI, µM)” value is listed as “no activity” and the “D2 receptor antagonistic activity pIC50 (M ± SEM)” value is reported as “no activity”. For the same compound, the “5-HT1A Receptor G-Protein Stimulation Emax (%) ± SEM” value on 5-HT1A receptor (rat hippocampus homogenate) is given as 178 ± 22.6 %. In addition, the EC50 at 5-HT1A receptor (setting [3]) worked out at 7.5 µM.

As for `O=C(NCCCN1CCN(C(=O)c2ccco2)CC1)C1CC2C=CC1C2` (stereo not drawn) [Norbo-27, Exo-N-(3-(4-(furan-2-carbonyl)piperazin-1-yl)propyl)bicyclo[2.2.1]hept-5-ene-2-carboxamide], the Ki at 5-HT2A receptor (read-out: 5-HT2A Ki (95% CI)) came out at 1.13 µM. The Ki at human 5-HT2C receptor (read-out: 5-HT2C Ki (95% CI)) stood at 1.78 µM. Moreover, on D2 receptor (setting [2]), the IC50 was found to be 66.6 µM. Further, at 5-HT1A receptor (rat hippocampus homogenate), the “5-HT1A Receptor G-Protein Stimulation EC50 (95% CI, nM)” value is reported as “no activity” and the “5-HT1A Receptor G-Protein Stimulation Emax (%) ± SEM” value is recorded as “no activity”. Further, the “5-HT1A Receptor G-Protein Stimulation pEC50” value at 5-HT1A receptor (setting [4]) is reported as “no activity”. Moreover, the “agonist activity at the 5-HT1A receptor” value on 5-HT1A receptor was “no agonist activity”.

As for `O=C(NCCCN1CCN(C(=O)c2ccco2)CC1)C1CC2C=CC1C2` (stereo not drawn) [Norbo-28, endo-N-(3-(4-(furan-2-carbonyl)piperazin-1-yl)propyl)bicyclo[2.2.1]hept-5-ene-2-carboxamide], the values for the Ki on 5-HT2A receptor (read-out: 5-HT2A Ki (95% CI)) and at human 5-HT2C receptor (read-out: 5-HT2C Ki (95% CI)) were 1.07 µM and 3.93 µM, respectively. Further, the “D2 receptor antagonistic activity IC50 (95% CI, µM)” value at D2 receptor is given as “no activity”. On D2 receptor, the “D2 receptor antagonistic activity pIC50 (M ± SEM)” value is “no activity”. In addition, on 5-HT1A receptor (setting [4]), the “5-HT1A Receptor G-Protein Stimulation pEC50” value is “no activity”. For the same compound, the “agonist activity at the 5-HT1A receptor” value at 5-HT1A receptor was “no agonist activity”.

Turning to `NC1=N[C@H](O)[C@H]2[C@H]3O[C@]4(O)O[C@@H]([C@@H](O)[C@@]2(N1)[C@@H]4O)[C@]3(O)CO` [tetrodotoxin, reference compound], in assay [1], the “effect on contractions induced by 5-HT” value is on record as “did not affect the contractions by 5-HT”.
